Reference: US20190345146A1, “NITROGEN CONTAINING BICYCLIC DERIVATIVES FOR TREATING PAIN AND PAIN RELATED CONDITIONS” (ESTEVE PHARMACEUTICALS, S.A., priority 2016, published 2019)
Read-outs that look alike come from different tables or passages of the source.

Tests used:
[1] = target: human norepinephrine transporter (NET) (Homo sapiens, UniProt P23975); assay: Binding assay to human norepinephrine transporter (NET) ([3H]-Nisoxetin); details: Table 2, dual compounds, human NET enriched membranes, read-out: Ki(nM) NET Hum
Experimental: (§1) Readings were performed in a Trilux 1450 Microbeta radioactive counter (Perkin Elmer). • Binding assay to human norepinephrine transporter (NET).
Human norepinephrine transporter (NET) enriched membranes (5 μg) were incubated with 5 nM of radiolabeled [3H]-Nisoxetin in assay buffer containing 50 mM Tris-HCl, 120 mM NaCl, 5 mM KCl, pH 7.4.
NSB (non specific binding) was measured by adding 10 μM desipramine. The binding of the test compound was measured at five different concentrations. After 60 min incubation at 4° C., binding reaction was terminated by filtering through Multiscreen GF/C (Millipore) presoaked in 0.5% polyethyleneimine in Vacuum Manifold Station, followed by 3 washes with ice-cold filtration buffer containing 50 mM Tris-HCl, 0.9% NaCl, pH 7.4.
(§2) Filter plates were dried at 60° C. for 1 h and 30 μl of scintillation cocktail were added to each well before radioactivity reading.
Readings were performed in a Trilux 1450 Microbeta radioactive counter (Perkin Elmer).

[2] = target: human α2δ-1 subunit of Cav2.2 calcium channel (Homo sapiens, UniProt P54289); assay: Binding assay to human α2δ-1 subunit of Cav2.2 calcium channel ([3H]-Gabapentin); details: read-out: Ki(nM) alpha2delta Hum
Experimental: • Binding assay to human α2δ-1 subunit of Cav2.2 calcium channel.
Human α2δ-1 enriched membranes (2.5 μg) were incubated with 15 nM of radiolabeled [3H]-Gabapentin in assay buffer containing Hepes-KOH 10 mM, pH 7.4.
NSB (non specific binding) was measured by adding 10 μM pregabalin. The binding of the test compound was measured at five different concentrations. After 60 min of incubation at 27° C., the binding reaction was terminated by filtering through Multiscreen GF/C (Millipore) presoaked in 0.5% polyethyleneimine in Vacuum Manifold Station, followed by 3 washes with ice-cold filtration buffer containing 50 mM Tris-HCl, pH 7.4.
as §2, §1

[3] = Table 1, human α2δ-1 enriched membranes

Chain of human α2δ-1 subunit of Cav2.2 calcium channel (P54289 25-1103): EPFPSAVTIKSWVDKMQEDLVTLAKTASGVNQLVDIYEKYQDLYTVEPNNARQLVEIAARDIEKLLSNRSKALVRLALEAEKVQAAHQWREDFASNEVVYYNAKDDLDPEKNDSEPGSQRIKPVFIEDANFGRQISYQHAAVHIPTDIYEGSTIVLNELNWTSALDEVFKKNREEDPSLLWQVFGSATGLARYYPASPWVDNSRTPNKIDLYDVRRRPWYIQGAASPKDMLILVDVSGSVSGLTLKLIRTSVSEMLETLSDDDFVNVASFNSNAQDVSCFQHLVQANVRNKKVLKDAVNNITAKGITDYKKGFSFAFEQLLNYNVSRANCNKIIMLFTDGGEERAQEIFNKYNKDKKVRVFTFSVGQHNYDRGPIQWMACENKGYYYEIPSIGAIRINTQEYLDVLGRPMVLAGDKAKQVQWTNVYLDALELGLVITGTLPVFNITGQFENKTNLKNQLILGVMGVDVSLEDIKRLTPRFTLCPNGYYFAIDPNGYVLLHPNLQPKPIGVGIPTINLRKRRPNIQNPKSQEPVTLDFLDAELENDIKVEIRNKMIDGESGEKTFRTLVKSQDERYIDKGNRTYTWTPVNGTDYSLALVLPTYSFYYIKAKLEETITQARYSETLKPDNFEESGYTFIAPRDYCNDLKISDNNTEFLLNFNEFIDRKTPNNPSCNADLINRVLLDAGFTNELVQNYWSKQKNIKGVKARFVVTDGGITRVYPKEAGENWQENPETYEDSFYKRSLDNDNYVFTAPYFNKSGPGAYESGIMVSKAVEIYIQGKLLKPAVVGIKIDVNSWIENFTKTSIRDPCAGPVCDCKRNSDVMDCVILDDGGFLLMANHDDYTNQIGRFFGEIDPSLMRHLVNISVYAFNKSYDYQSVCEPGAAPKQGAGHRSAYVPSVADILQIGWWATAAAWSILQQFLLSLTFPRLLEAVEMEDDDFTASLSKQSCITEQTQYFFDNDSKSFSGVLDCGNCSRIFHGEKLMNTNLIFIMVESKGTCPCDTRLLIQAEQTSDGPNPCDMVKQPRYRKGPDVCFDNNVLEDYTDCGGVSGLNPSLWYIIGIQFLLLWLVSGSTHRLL
Chain of human norepinephrine transporter (NET) (P23975 whole entry): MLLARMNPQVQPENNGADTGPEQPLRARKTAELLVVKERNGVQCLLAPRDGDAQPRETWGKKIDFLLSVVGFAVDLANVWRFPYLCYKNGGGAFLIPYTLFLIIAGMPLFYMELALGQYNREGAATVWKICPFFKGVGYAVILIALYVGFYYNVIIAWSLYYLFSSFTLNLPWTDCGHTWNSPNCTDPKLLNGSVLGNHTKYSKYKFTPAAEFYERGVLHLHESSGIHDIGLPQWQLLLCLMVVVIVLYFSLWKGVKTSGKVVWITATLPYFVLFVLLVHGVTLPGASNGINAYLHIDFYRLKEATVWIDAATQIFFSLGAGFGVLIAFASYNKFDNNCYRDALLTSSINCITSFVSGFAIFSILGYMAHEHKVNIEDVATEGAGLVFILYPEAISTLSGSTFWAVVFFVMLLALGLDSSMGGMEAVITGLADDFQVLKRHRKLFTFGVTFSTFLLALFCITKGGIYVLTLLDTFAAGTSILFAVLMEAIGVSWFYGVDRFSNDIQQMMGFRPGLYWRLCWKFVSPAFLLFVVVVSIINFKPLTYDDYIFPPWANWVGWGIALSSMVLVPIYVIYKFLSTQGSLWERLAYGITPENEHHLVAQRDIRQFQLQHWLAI

SMILES	Ki [2, 3]	also measured
CNCCC(Oc1cccc2c1CCCN2C)c1cccs1 (stereo not shown) [Example 1, N-Methyl-3-((1-methyl-1,2,3,4-tetrahydroquinolin-5-yl)oxy)-3-(thiophen-2-yl)propan-1-amine]	100 to 500 nM	Ki [1]: 500 to 1000 nM; Ki ([2]; Table 2, dual compounds, human α2δ-1 enriched membranes): 100 to 500 nM
CNCCC(Oc1cccc2c1CCN(C)C2)c1cccs1 (stereo not shown) [Example 2, N-methyl-3-((2-methyl-1,2,3,4-tetrahydroisoquinolin-5-yl)oxy)-3-(thiophen-2-yl)propan-1-amine]	< 100 nM	
CNCC[C@@H](Oc1cccc2cnncc12)c1cccs1 [Example 4, (R)—N-Methyl-3-(phthalazin-5-yloxy)-3-(thiophen-2-yl)propan-1-amine]	100 to 500 nM	
CNCC[C@H](Oc1cccc2cnncc12)c1cccs1 [Example 5, (S)-N-methyl-3-(phthalazin-5-yloxy)-3-(thiophen-2-yl)propan-1-amine]	≥ 3000 nM	
CNCCC(Oc1cccc2cnncc12)c1cccs1 (stereo not shown) [Example 6, N-methyl-3-(phthalazin-5-yloxy)-3-(thiophen-2-yl)propan-1-amine]	< 100 nM	
CNCCC(Oc1cccc2ncn(C)c(=O)c12)c1cccs1 (stereo not shown) [Example 7, 3-methyl-5-(3-(methylamino)-1-(thiophen-2-yl)propoxy)quinazolin-4(3H)-one]	100 to 500 nM	
CNCCC(Oc1cccc2c(=O)n(C)cnc12)c1cccs1 (stereo not shown) [Example 8, 3-methyl-8-(3-(methylamino)-1-(thiophen-2-yl)propoxy)quinazolin-4(3H)-one]	100 to 500 nM	
CNCCC(Oc1cccc2c(=O)n(C)ccc12)c1cccs1 (stereo not shown) [Example 9, 2-methyl-5-(3-(methylamino)-1-(thiophen-2-yl)propoxy)isoquinolin-1(2H)-one]	100 to 500 nM	
CCNCCC(Oc1cccc2cnncc12)c1ccccc1 (stereo not shown) [Example 11, N-ethyl-3-phenyl-3-(phthalazin-5-yloxy)propan-1-amine]	500 to 3000 nM	
CCNCCC(Oc1cccc2cnncc12)c1cccs1 (stereo not shown) [Example 12, N-ethyl-3-(phthalazin-5-yloxy)-3-(thiophen-2-yl)propan-1-amine]	100 to 500 nM	
CCNCC[C@@H](Oc1cccc2cnncc12)c1ccccc1 [Example 13, (R)-N-ethyl-3-phenyl-3-(phthalazin-5-yloxy)propan-1-amine]	500 to 3000 nM	
CCNCC[C@@H](Oc1cccc2cnncc12)c1cccs1 [Example 14, (R)-N-ethyl-3-(phthalazin-5-yloxy)-3-(thiophen-2-yl)propan-1-amine]	< 100 nM	
CNCCC(OCc1cccc2cnccc12)c1ccccc1 (stereo not shown) [Example 17, 3-(Isoquinolin-5-ylmethoxy)-N-methyl-3-phenylpropan-1-amine]	≥ 3000 nM	
CNCCC(OCc1cccc2ccncc12)c1ccccc1 (stereo not shown) [Example 18, 3-(isoquinolin-8-ylmethoxy)-N-methyl-3-phenylpropan-1-amine]	≥ 3000 nM	
CNCCC(OCc1cccc2ncccc12)c1ccccc1 (stereo not shown) [Example 19, N-methyl-3-phenyl-3-(quinolin-5-ylmethoxy)propan-1-amine]	≥ 3000 nM	
CNCCC(OCc1cccc2ccncc12)c1cccs1 (stereo not shown) [Example 20, 3-(Isoquinolin-8-ylmethoxy)-N-methyl-3-(thiophen-2-yl)propan-1-amine]	≥ 3000 nM	
CNCCC(OCc1cccc2cnccc12)c1cccs1 (stereo not shown) [Example 21, 3-(isoquinolin-5-ylmethoxy)-N-methyl-3-(thiophen-2-yl)propan-1-amine]	≥ 3000 nM	
CNCCC(OCc1cccc2ncccc12)c1cccs1 (stereo not shown) [Example 22, N-methyl-3-(quinolin-5-ylmethoxy)-3-(thiophen-2-yl)propan-1-amine]	≥ 3000 nM	
CNCC[C@H](Oc1cccc2c1CCCN2C)c1cccs1 [Example 23, (S)—N-methyl-3-((1-methyl-1,2,3,4-tetrahydroquinolin-5-yl)oxy)-3-(thiophen-2-yl)propan-1-amine]	500 to 3000 nM	
CNCC[C@@H](Oc1cccc2c1CCCN2C)c1cccs1 [Example 24, (R)—N-methyl-3-((1-methyl-1,2,3,4-tetrahydroquinolin-5-yl)oxy)-3-(thiophen-2-yl)propan-1-amine]	100 to 500 nM	
CNCC[C@H](Oc1cccc2c1CCN(C)C2)c1cccs1 [Example 25, (S)—N-methyl-3-((2-methyl-1,2,3,4-tetrahydroisoquinolin-5-yl)oxy)-3-(thiophen-2-yl)propan-1-amine]	100 to 500 nM	

SMILES	Ki [2, 3]	also measured
CNCC[C@@H](Oc1cccc2c1CCN(C)C2)c1cccs1 [Example 26, (R)—N-methyl-3-((2-methyl-1,2,3,4-tetrahydroisoquinolin-5-yl)oxy)-3-(thiophen-2-yl)propan-1-amine]	< 100 nM	
CCNCCC(Oc1cccc2c1CCN(C)C2)c1cccs1 (stereo not shown) [Example 27, N-ethyl-3-((2-methyl-1,2,3,4-tetrahydroisoquinolin-5-yl)oxy)-3-(thiophen-2-yl)propan-1-amine]	< 100 nM	
CNCC[C@H](Oc1cccc2c1ccc(=O)n2C)c1cccs1 [Example 28, (S)-1-methyl-5-(3-(methylamino)-1-(thiophen-2-yl)propoxy)quinolin-2(1H)-one]	500 to 3000 nM	
CNCC[C@@H](Oc1cccc2c1ccc(=O)n2C)c1cccs1 [Example 29, (R)-1-methyl-5-(3-(methylamino)-1-(thiophen-2-yl)propoxy)quinolin-2(1H)-one]	100 to 500 nM	
CCNCC[C@@H](Oc1cccc2ncn(C)c(=O)c12)c1cccs1 [Example 30, (R)-5-(3-(ethylamino)-1-(thiophen-2-yl)propoxy)-3-methylquinazolin-4(3H)-one]	< 100 nM	
CCNCC[C@@H](Oc1cccc2c(=O)n(C)ccc12)c1cccs1 [Example 31, (R)-5-(3-(ethylamino)-1-(thiophen-2-yl)propoxy)-2-methylisoquinolin-1(2H)-one]	< 100 nM	
CCNCC[C@@H](Oc1cccc2c(=O)n(C)cnc12)c1cccs1 [Example 32, (R)-8-(3-(ethylamino)-1-(thiophen-2-yl)propoxy)-3-methylquinazolin-4(3H)-one]	100 to 500 nM	
CNCC[C@H](Oc1cccc2ncncc12)c1cccs1 [Example 33, (S)-N-methyl-3-(quinazolin-5-yloxy)-3-(thiophen-2-yl)propan-1-amine]	100 to 500 nM	
CCNCC[C@H](Oc1cccc2c(=O)n(C)cnc12)c1cccs1 [Example 34, (S)-8-(3-(ethylamino)-1-(thiophen-2-yl)propoxy)-3-methylquinazolin-4(3H)-one]	≥ 3000 nM	
CCNCC[C@H](Oc1cccc2c(=O)n(C)ccc12)c1cccs1 [Example 35, (S)-5-(3-(ethylamino)-1-(thiophen-2-yl)propoxy)-2-methylisoquinolin-1(2H)-one]	500 to 3000 nM	
CCNCC[C@H](Oc1cccc2ncn(C)c(=O)c12)c1cccs1 [Example 36, (S)-5-(3-(ethylamino)-1-(thiophen-2-yl)propoxy)-3-methylquinazolin-4(3H)-one]	≥ 3000 nM	
CNCC[C@@H](Oc1cccc2ncncc12)c1cccs1 [Example 37, (R)-N-methyl-3-(quinazolin-5-yloxy)-3-(thiophen-2-yl)propan-1-amine]	< 100 nM	
CCNCC[C@H](Oc1cccc2ncncc12)c1cccs1 [Example 38, (S)-N-ethyl-3-(quinazolin-5-yloxy)-3-(thiophen-2-yl)propan-1-amine]	500 to 3000 nM	
CCNCC[C@@H](Oc1cccc2ncncc12)c1cccs1 [Example 39, (R)-N-ethyl-3-(quinazolin-5-yloxy)-3-(thiophen-2-yl)propan-1-amine]	100 to 500 nM	
CCNCC[C@@H](Oc1cccc2ncncc12)c1ccsc1 [Example 40, (R)-N-ethyl-3-(quinazolin-5-yloxy)-3-(thiophen-3-yl)propan-1-amine]	< 100 nM	
CCNCC[C@@H](Oc1cccc2c(=O)n(C)cnc12)c1ccsc1 [Example 41, (R)-8-(3-(ethylamino)-1-(thiophen-3-yl)propoxy)-3-methylquinazolin-4(3H)-one]	< 100 nM	
CCNCC[C@@H](Oc1cccc2c(=O)n(C)ccc12)c1ccsc1 [Example 42, (R)-5-(3-(ethylamino)-1-(thiophen-3-yl)propoxy)-2-methylisoquinolin-1(2H)-one]	< 100 nM	
CNCC[C@@H](Oc1cccc2ncn(C)c(=O)c12)c1ccsc1 [Example 43, (R)-3-methyl-5-(3-(methylamino)-1-(thiophen-3-yl)propoxyl)quinazolin-4(3H)-one]	100 to 500 nM	
CCNCC[C@@H](Oc1cc(C)cc2c(=O)n(C)cnc12)c1cccs1 [Example 44, (R)-8-(3-(ethylamino)-1-(thiophen-2-yl)propoxy)-3,6-dimethylquinazolin-4(3H)-one]	100 to 500 nM	
CNCC[C@@H](Oc1cc(F)cc2ncn(C)c(=O)c12)c1cccs1 [Example 45, (R)-7-fluoro-3-methyl-5-(3-(methylamino)-1-(thiophen-2-yl)propoxyl)quinazolin-4(3H)-one]	100 to 500 nM	
